The compounds below were run against T1, full-length NS3/NS4A-2 (HCV NS3 protease) (Hepatitis C virus genotype 1a, UniProt P27958) (assay: NS3-NS4 protease assay / NS3 inhibition assay (RETS1 substrate, fluorescence kinetic read)). Details: not given.
T1 construct: Recombinant E. coli or Baculovirus full-length NS3 was diluted to 3.33 μM with assay buffer; made in house; host or cells: E. coli or baculovirus (BV) expression system
Format: biochemical
Outline: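 Ki values come from IC50 fits corrected via Ki=IC50/(1+[S]/Km), with Km 2.03 μM for E. coli and 1.74 μM for baculovirus full-length NS3. Enzyme (2 or 3 nM NS3, respectively, complexed with NS4A-2) sat with compound, top concentration 50 microM, for 10 min at room temperature. Cleavage of RETS1 (8 μM working solution) was then followed by fluorescence (335/495 nm) over 30 min.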

T1 sequence (P27958 1027-1657): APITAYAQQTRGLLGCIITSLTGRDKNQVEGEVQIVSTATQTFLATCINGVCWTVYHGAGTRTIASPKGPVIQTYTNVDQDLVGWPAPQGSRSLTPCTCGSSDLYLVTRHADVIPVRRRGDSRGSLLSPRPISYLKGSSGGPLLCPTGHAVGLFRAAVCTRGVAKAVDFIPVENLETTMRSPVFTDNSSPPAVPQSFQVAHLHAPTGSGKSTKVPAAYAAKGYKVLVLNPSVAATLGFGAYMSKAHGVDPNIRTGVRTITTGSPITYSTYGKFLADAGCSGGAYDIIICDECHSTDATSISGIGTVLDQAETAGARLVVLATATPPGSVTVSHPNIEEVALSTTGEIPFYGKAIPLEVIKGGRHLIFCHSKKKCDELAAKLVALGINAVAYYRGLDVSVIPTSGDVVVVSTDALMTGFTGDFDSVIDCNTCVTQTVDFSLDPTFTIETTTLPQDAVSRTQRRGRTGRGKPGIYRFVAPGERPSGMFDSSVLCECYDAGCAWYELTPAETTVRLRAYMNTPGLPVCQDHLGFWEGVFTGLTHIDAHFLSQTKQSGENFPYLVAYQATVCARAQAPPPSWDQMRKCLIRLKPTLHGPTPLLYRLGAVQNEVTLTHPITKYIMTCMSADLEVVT

`CC(C)(C)OC(=O)N[C@H]1CCC(O)CC/C=C\[C@@H]2C[C@@]2(C(=O)NS(=O)(=O)C2CC2)NC(=O)[C@@H]2C[C@@H](OC(=O)N3Cc4cccc(F)c4C3)CN2C1=O` (some centres unmarked) [Compound 1018] was tested, and the IC50 was < 0.1 µM.

Same assay, conditions: Table 22; read-out: NS3-NS4 IC50

`CC(C)(C)OC(=O)N[C@H]1CCCCC/C=C\[C@@H]2C[C@@]2(C(=O)NC2CC2)NC(=O)[C@@H]2CCCN2C1=O` [Compound 2318] was tested, and the IC50 was < 1 µM.

Same assay, conditions: Table 24; read-out: NS3-NS4 IC50

`C[C@H](NC(=O)[C@@]12C[C@H]1/C=C\CCCCC[C@H](NC(=O)OC(C)(C)C)C(=O)N1C[C@H](OC(=O)N3Cc4ccccc4C3)C[C@H]1C(=O)N2)c1ccccc1` [Compound 2502] and `CC(C)(C)OC(=O)N[C@H]1CCCCC/C=C\[C@@H]2C[C@@]2(C(=O)NCC2CC2)NC(=O)[C@@H]2C[C@@H](OC(=O)N3Cc4ccccc4C3)CN2C1=O` [Compound 2501, (1S,4R,6S,14S,18R)-1,3-Dihydro-isoindole-2-carbonyloxylic acid 14-tert-butoxycarbonylamino-4-cyclopropylmethanaminocarbonyl-2,15-dioxo-3,16-diaza-tricyclo[14.3.0.0^4,6]nonadec-7-ene-18-yl ester] cannot be ordered by IC50: > 10 µM for the first, > 10 µM for the second.

Same assay, conditions: recombinant E. coli or Baculovirus full-length NS3 with NS4A-2; read-out: NS3-NS4 IC50

`O=C(N[C@H]1CCCCC/C=C\[C@@H]2C[C@@]2(C(=O)NS(=O)(=O)c2ccccc2)NC(=O)C2Cc3cc(Oc4cccc(Cl)c4)ccc3CN2C1=O)OC1CCCC1` (stereo partly drawn) [Compound 2004, Cyclopentyl (1aS,9S,19aR,Z)-15-(3-chlorophenoxy)-10,18-dioxo-19a-(phenylsulfonylcarbamoyl)-1a,4,5,6,7,8,9,10,12,17,17a,18,19,19a-tetradecahydro-1H-11,14-diaza-bicyclo[13.1.0]hexadeca-1(15), 2-dieno[11,12-b]isoquinolin-9-ylcarbamate] and `O=C(N[C@H]1CCCCC/C=C\[C@@H]2C[C@@]2(C(=O)O)NC(=O)C2Cc3cc(Oc4cccc(Cl)c4)ccc3CN2C1=O)OC1CCCC1` (some centres unmarked) [Compound 2002, (Z)-15-(3-chlorophenoxy)-9-(cyclopentyloxycarbonyl)-10,18-dioxo-1a,4,5,6,7,8,9,10,12,17,17a,18,19,19a-tetradecahydro-1H-11,14-diaza-bicyclo[13.1.0]hexadeca-1(16), 2-dieno[11,12-b]isoquinoline-19a-carboxylic acid] cannot be ordered by IC50: < 1 µM for the first, < 10 µM for the second.

Going from `CC(C)(C)OC(=O)N[C@H]1CCCCCCC[C@@H]2C[C@@]2(C(=O)O)NC(=O)C2Cc3ccccc3CN2C1=O` (stereo partly drawn) [Compound 2011, (1aR,9S,19aR)-9-(tert-butoxycarbonyl)-10,18-dioxo-1a,2,3,4,5,6,7,8,9,10,12,17,17a,18,19,19a-hexadecahydro-1H-2,5-diaza-bicyclo[13.1.0]hexadec-1(15)-eno[5,4-b]isoquinoline-19a-carboxylic acid] to `CC(C)(C)OC(=O)N[C@H]1CCCCC/C=C\[C@@H]2C[C@@]2(C(=O)NS(=O)(=O)N2Cc3ccccc3C2)NC(=O)[C@@H]2CCCN2C1=O` [Compound 409], the IC50 falls from > 10 µM to < 10 µM. The second is the more potent here.

`CC(C)(C)OC(=O)N[C@H]1CCCCC/C=C\[C@@H]2C[C@@]2(C(=O)NS(=O)(=O)Cc2ccccc2)NC(=O)[C@@H]2CCCN2C1=O` [Compound 2135] and `CC(C)(C)OC(=O)N[C@H]1CCCCC/C=C\[C@@H]2C[C@@]2(C(=O)NS(=O)(=O)CCc2ccccc2)NC(=O)[C@@H]2CCCN2C1=O` [Compound 2127] cannot be ordered by IC50: < 1 µM for the first, < 10 µM for the second.

`CC(C)(C)OC(=O)N[C@H]1CCCCC/C=C\[C@@H]2C[C@@]2(C(=O)NS(=O)(=O)c2cnc(Cl)c(Br)c2)NC(=O)[C@@H]2CCCN2C1=O` [Compound 2154] and `CC(C)(C)OC(=O)N[C@H]1CCCCC/C=C\[C@@H]2C[C@@]2(C(=O)NS(=O)(=O)c2ccc(Br)cc2)NC(=O)[C@@H]2CCCN2C1=O` [Compound 2131] cannot be ordered by IC50: < 10 µM for the first, < 10 µM for the second.

Going from `CC(C)(C)OC(=O)N[C@H]1CCCCC/C=C\[C@@H]2C[C@@]2(C(=O)NC(=O)Nc2ccccc2)NC(=O)[C@@H]2C[C@@H](OC(=O)N3Cc4ccccc4C3)CN2C1=O` [Compound 704] to `CC(C)(C)OC(=O)N[C@H]1CCCCC/C=C\[C@@H]2C[C@@]2(CO)NC(=O)[C@@H]2C[C@@H](OC(=O)N3Cc4cccc(F)c4C3)CN2C1=O` [Compound 153, (2R,6S,13aS,14aR,16aS,Z)-6-(tert-botoxycarbonylamino)-14a-(hydroxymethyl)-5,16-dioxo-1,2,3,5,6,7,8,9,10,11,13a,14,14a,15,16,16a-hexadecahydrocyclopropa[e]pyrrolo[1,2-α][1,4]dizacyclopentadecin-2-yl-4-fluoroisoindoline-2-carboxylate], the IC50 rises from < 10 µM to > 10 µM. The first is the more potent here.

`CC(C)C(C(C)C)S(=O)(=O)NC(=O)[C@@]12C[C@H]1/C=C\CCCCC[C@H](NC(=O)OC(C)(C)C)C(=O)N1CCC[C@H]1C(=O)N2` [Compound 2209] and `CN(c1ccccc1)S(=O)(=O)NC(=O)[C@@]12C[C@H]1/C=C\CCCCC[C@H](NC(=O)OC(C)(C)C)C(=O)N1CCC[C@H]1C(=O)N2` [Compound 2227] cannot be ordered by IC50: < 1 µM for the first, < 10 µM for the second.

`CC(C)(C)OC(=O)N[C@H]1CCCCC/C=C\[C@@H]2C[C@@]2(C(=O)NS(=O)(=O)N2CCc3ccccc3C2)NC(=O)[C@@H]2CCCN2C1=O` [Compound 408] and `CN(c1ccccc1Cl)S(=O)(=O)NC(=O)[C@@]12C[C@H]1/C=C\CCCCC[C@H](NC(=O)OC(C)(C)C)C(=O)N1CCC[C@H]1C(=O)N2` [Compound 405] cannot be ordered by IC50: < 10 µM for the first, < 10 µM for the second.

`CC(C)(C)OC(=O)N[C@H]1CCN(S(=O)(=O)c2ccccc2[N+](=O)[O-])CC/C=C\[C@@H]2C[C@@]2(C(=O)NS(=O)(=O)C2CC2)NC(=O)[C@@H]2C[C@@H](OC(=O)N3Cc4cccc(F)c4C3)CN2C1=O` [Compound 1030, (2R,6S,13aS,14aR,16aS,Z)-6-(tert-butoxycarbonylamino)-14a-(cyclopropylsulfonylcarbamoyl)-9-(2-nitrophenylsulfonyl)-5,16-dioxo-1,2,3,5,6,7,8,9,10,11,13a,14,14a,15,16,16a-hexadecahydrocyclopropa(n)pyrrolo[2,1-c][1,4,9]triazacyclopentadecine-2-yl 4-fluoroisoindoline-2-carboxylate] and `CC(C)(C)C(O)C(=O)N[C@H]1CCCCC/C=C\[C@@H]2C[C@@]2(C(=O)NS(=O)(=O)C2CC2)NC(=O)[C@@H]2C[C@@H](OC(=O)N3Cc4cccc(F)c4C3)CN2C1=O` (single isomer, unassigned) [Compound 248] cannot be ordered by IC50: < 0.1 µM for the first, < 0.1 µM for the second.

Compared with `CC(C)(C)OC(=O)N[C@H]1CCCCC/C=C\[C@@H]2C[C@@]2(C(=O)NS(=O)(=O)NCc2ccccc2)NC(=O)[C@@H]2CCCN2C1=O` [Compound 2232], `CC(C)(C)OC(=O)N[C@H]1CCCCC/C=C\[C@@H]2C[C@@]2(C(=O)NS(=O)(=O)Nc2ccncc2)NC(=O)[C@@H]2CCCN2C1=O` [Compound 407] is higher in IC50: < 10 µM for the first, > 10 µM for the second. The first is the more potent here.

Going from `CC(C)(C)OC(=O)N[C@H]1CCCCC/C=C\[C@@H]2C[C@@]2(C(=O)NCC(O)(C(F)(F)F)C(F)(F)F)NC(=O)[C@@H]2CCCN2C1=O` [Compound 503] to `Cc1ccc([S@+]([O-])NC(=O)[C@@]23C[C@H]2/C=C\CCCCC[C@H](NC(=O)OC(C)(C)C)C(=O)N2CCC[C@H]2C(=O)N3)cc1` [Compound 2402], the IC50 falls from > 10 µM to < 0.1 µM.

Going from `C[C@@H](NC(=O)O[C@@H]1C[C@H]2C(=O)N[C@]3(C(=O)O)C[C@H]3/C=C\CCCCC[C@H](NC(=O)OC(C)(C)C)C(=O)N2C1)c1ccc(F)cn1` [Compound 148] to `CC(C)(C)OC(=O)N[C@H]1CCCCC/C=C\[C@@H]2C[C@@]2(C(=O)NS(=O)(=O)c2ccc3ccccc3c2)NC(=O)[C@@H]2CCCN2C1=O` [Compound 2130], the IC50 falls from > 10 µM to < 10 µM. The second is the more potent here.

`CC(C)(C)OC(=O)N[C@H]1CCCCC/C=C\[C@@H]2C[C@@]2(C(=O)NS(=O)(=O)c2c(Cl)cc(Cl)cc2Cl)NC(=O)[C@@H]2CCCN2C1=O` [Compound 2115] and `CC(C)(C)CC(=O)N[C@H]1CCCCC/C=C\[C@@H]2C[C@@]2(C(=O)NS(=O)(=O)C2CC2)NC(=O)C2CCCN2C1=O` (some centres unmarked) [Compound 2141] cannot be ordered by IC50: < 0.1 µM for the first, < 10 µM for the second.

`Cc1noc(C)c1S(=O)(=O)NC(=O)[C@@]12C[C@H]1/C=C\CCCCC[C@H](NC(=O)OC1CCCC1)C(=O)N1C[C@H](OC(=O)N3CCc4ccccc4C3)C[C@H]1C(=O)N2` [Compound 187] and `CC[C@@H]1C[C@H]2C(=O)N[C@]3(C(=O)NS(=O)(=O)Nc4ccc(Cl)cc4)C[C@H]3/C=C\CCCCC[C@H](NC(=O)C3CC3)C(=O)N2C1` [Compound 429] cannot be ordered by IC50: < 0.1 µM for the first, < 10 µM for the second.

`O=C(N[C@H]1CCCCC/C=C\[C@@H]2C[C@@]2(C(=O)O)NC(=O)[C@@H]2CCCN2C1=O)C1CC1` [Compound 315] and `O=C(N[C@H]1CCCCC/C=C\[C@@H]2C[C@@]2(C(=O)NS(=O)(=O)Nc2ccc(Cl)cc2)NC(=O)[C@@H]2CCCN2C1=O)C1CC1` [Compound 428] cannot be ordered by IC50: < 10 µM for the first, < 10 µM for the second.

Source: patent publication US7829665B2 (priority 2005, dated 2010)
